Where only a bound is given, the exact number is not on record here.

Holding throughout (type): cell-based
One experiment relates to 22Rv1. In words: Tumor cell proliferation inhibition (Promega cell viability, 72 h). Conditions: Homo sapiens, 22Rv1 cells, read-out: Anti-proliferation IC50. As to the method:
(§1) The cell lines used in the experiment are various tumor cells, including DU4475, Colo205, HepG2, PLC/PRF/5, BT-20, LS174T, NCI-H929, HCT116, SW620, SK-CO-1, SW480, DLD1, HT-29, SW900, SW1417, HuH7, H2009, PANC-1, SW48, Duadi, H358, HCT15, 22Rv1, Hela, RKO, Raji, Jurkat, NCI-H716, MDA-MB-231, NCI-H157 and THP1, and the inhibitory effect of the compound of the present disclosure on the proliferation of these tumor cells is determined, in order to screen out sensitive cell types of the compound of the present disclosure.
(§2) DU4475, Colo205, HepG2, PLC/PRF/5, BT-20, LS174T, NCI-H929, HCT116, SW620, SK-CO-1, SW480, DLD1, HT-29, SW900, SW1417, HuH7, H2009, PANC-1, SW48, Duadi, H358, HCT15, 22Rv1, Hela, RKO, Raji, Jurkat, NCI-H716, MDA-MB-231, NCI-H157 and THP1 cell lines cultured in each medium were treated during the logarithmic growth phase, and the cells were collected and prepared into a uniform cell suspension of known concentration, and then added to the 96-well cell culture plate to make each well contain 1000 cells. Put it into a 5% CO2 incubator and incubate at 37° C. for 20-24 h. The next day, the fully dissolved 3-fold gradient diluted compound was added to each cell culture well, so that the final maximum concentration in the cell culture well was 20 μM, and the culture was continued for 72 hours. In this test, Promega's cell viability detection test is used for detection. The more the cells proliferate, the stronger the final signal intensity will be. The detection instrument is SpectraMax, full wavelength mode. The wells with only DMSO added were used as positive control wells, and the wells without cells inoculated were used as negative control wells. The IC50 value of each compound for different cell proliferation inhibition was calculated to evaluate the inhibitory effect of the compound on different tumor cells.

A further experiment has as its system DLD1. The description is as above. The following applies: Homo sapiens, DLD-1, DLD1 cells, read-out: Anti-proliferation IC50. As to the method: as §1, §2
The test system of a further experiment is DU4475. The experiment is described as above. Conditions: Homo sapiens, DU-4475, DU4475 cells, read-out: Anti-proliferation IC50. As to the method: as §1, §2
For the next experiment, the system named is HCT15. The description is as above. Conditions: Homo sapiens, HCT-15, HCT15 cells, read-out: Anti-proliferation IC50. As to the method: as §1, §2
The subject of another experiment is Hela. The description is as above. Conditions: Homo sapiens, Hela cells, read-out: Anti-proliferation IC50. On the procedure:
as §1, §2

The next experiment deals with NCI-H157. The description is as above. The following applies: Homo sapiens, NCI-H157 cells, read-out: Anti-proliferation IC50. As to the method:
as §1, §2

For the next experiment, the system named is RKO. Described as above. Conditions: Homo sapiens, RKO cells, read-out: Anti-proliferation IC50. On the procedure:
as §1, §2

The next experiment relates to SW1417. The description is as above. Conditions: Homo sapiens, SW1417 cells, read-out: Anti-proliferation IC50. On the procedure: as §1, §2
For a further experiment, the system named is SW480. The description is as above. The following applies: Homo sapiens, SW480 cells, read-out: Anti-proliferation IC50. As to the method: as §1, §2
A further experiment concerns SW48. The description is as above. Conditions: Homo sapiens, SW48 cells, read-out: Anti-proliferation IC50. On the procedure:
as §1, §2

The next experiment has as its system SW900. The experiment is described as above. The following applies: Homo sapiens, SW900 cells, read-out: Anti-proliferation IC50. As to the method:
as §1, §2

The subject of experiment [1] is non-phosphorylated β-catenin. In words: Western blot of non-phosphorylated β-catenin content in Colo205 cells. The following applies: for Effect on content of non-phosphorylated β-catenin (active β-catenin), in words: FIG. 1; for IC50: overnight, Western blot, read-out: Non-phosphorylated β-catenin content inhibition IC50. An excerpt:
(§3) The Wnt signaling pathway is a key pathway for abnormal tumor growth. In colon cancer, liver cancer, pancreatic cancer and other cancers, a large number of patients have abnormal activation of the Wnt signaling pathway. The Wnt signaling pathway depends on the fine balance of β-catenin protein level. When Wnt signaling is not activated, β-catenin is phosphorylated by CK1 and APC/Axin/GSK-3β complexes, and the β-catenin protein is kept at a low level through ubiquitin-dependent proteasome degradation. When the Wnt signaling pathway is activated, β-catenin maintains a stable state of non-phosphorylation, and non-phosphorylated β-catenin can be transported into the nucleus through Rac1 and other factors, and plays a transcriptional regulatory role by binding to LEF/TCF transcription factors in the nucleus, activates downstream target genes such as C-myc and Cyclin D1, and promotes cell proliferation. Therefore, abnormal activation of the Wnt signaling pathway in tumor cells will lead to abnormal proliferation of tumors. In order to explore the inhibitory mechanism of the compound on the proliferation of tumor cell lines, the compound AN10250399, AN10250421 or AN10250484 was used to treat sensitive cells Colo205, DU4475 and HepG2, and Western blot was used to detect the content of non-phosphorylated β-catenin in the Wnt pathway to clarify the effect of the compound on content of the non-phosphorylated β-catenin.
Add 500 μL of the compound with the highest concentration shown in FIG. 1 to each well of the 6-well cell culture plate, and make a 10-fold gradient dilution of the compound concentration. Then 500 μL of 10^6 Colo205, DU4475 and HepG2 or 500 μL of medium were inoculated into each well, and corresponding solvent treatment was performed simultaneously as negative control wells. The cells were placed in a 5% CO2 cell incubator, cultured overnight at 37° C. The culture medium was removed, washed once with PBS, 200 μL of RIPA buffer containing protease inhibitors was added to each well, and the protein lysate was collected after lysing on ice for 20 min. Add an appropriate amount of concentrated SDS-PAGE protein loading buffer to the collected protein lysate samples, and heat at 100° C. or in a boiling water bath for 3-5 minutes to fully denature the protein. Load the protein sample directly to the SDS-PAGE gel for electrophoresis separation, transfer the protein on the SDS-PAGE gel to the PVDF membrane; after the transfer was completed, the protein was blocked by Western blocking solution, then Rabbit anti-β-catenin non-phospho S37/After T41 (ab278503) was added and the protein was incubated at room temperature for one hour and washed, the content of non-phosphorylated β-catenin was detected by incubation with Goat Anti-Rabbit IgG H&L (HRP) (ab6721). As a control, glyceraldehyde-3-phosphate dehydrogenase (GAPDH) was used as an internal standard protein
A general note: In western blotting, separated proteins are transferred to a membrane and probed.

Experiment [2] relates to non-phosphorylated β-catenin. In words: Western blot of non-phosphorylated β-catenin content in HepG2 cells. Conditions: overnight, read-out: Non-phosphorylated β-catenin content inhibition IC50.
Description: as §3, with “In order to explore the inhibitory mechanism of the compound on the proliferation of tumor cell lines, the compound AN10250399, AN10250421 or AN10250484 was used to treat sensitive cells Colo205, DU4475 and HepG2, and Western blot was used to detect the content of non-phosphorylated β-catenin in the Wnt pathway to clarify the effect of the compound on content of the non-phosphorylated β-catenin.” left out
Add 500 μL of the compound with the highest concentration shown in FIG. 1 to each well of the 6-well cell culture plate, and make a 10-fold gradient dilution of the compound concentration. […] Load the protein sample directly to the SDS-PAGE gel for electrophoresis separation, transfer the protein on the SDS-PAGE gel to the PVDF membrane; after the transfer was completed, the protein was blocked by Western blocking solution, then Rabbit anti-β-catenin non-phospho S37/After T41 (ab278503) was added and the protein was incubated at room temperature for one hour and washed, the content of non-phosphorylated β-catenin was detected by incubation with Goat Anti-Rabbit IgG H&L (HRP) (ab6721). […]

Regarding `[2H]C([2H])([2H])N1c2nc(NCc3ccc(Oc4cnc(C(F)(F)F)nc4)nc3)nc3c2N(CCC3)C(=O)[C@]1(C)CO` [AN10250399], the IC50 in the experiment with 22Rv1 is over 10 µM; with DLD1, 0.0966 µM; in the experiment with DU4475 it was 0.0369 µM; with HCT15 it was over 10 µM; in the experiment with Hela it was over 10 µM; in the experiment on NCI-H157, over 10 µM. Moreover, the IC50 was over 10 µM in the experiment with RKO; 0.17 µM in the experiment with SW1417; 0.3 µM with SW480; over 10 µM with SW48; 0.0572 µM in the experiment with SW900; 0.022 µM in experiment [1]. In [2], the IC50 was found to be 0.004 µM. In [1], the “Effect on content of non-phosphorylated β-catenin (active β-catenin), in words” value was “decrease the content of non-phosphorylated β-catenin”.

With `Cc1nc(C(F)(F)F)ncc1Oc1ccc(CNc2nc(C)c3c(n2)N(C)[C@@H](C)C(=O)N3)cn1` [AN10250484], the IC50 was over 10 µM in the experiment with 22Rv1; 0.315 µM in the experiment on DLD1; 0.0079 µM with DU4475; over 10 µM with HCT15; over 10 µM with Hela; over 10 µM in the experiment on NCI-H157. In addition, the IC50 was over 10 µM with RKO; 0.0334 µM with SW1417; 0.3 µM with SW480; over 10 µM in the experiment with SW48; 0.0266 µM in the experiment on SW900; 0.01 µM in experiment [1]. The IC50 in experiment [2] is 0.0059 µM. Further, in experiment [1], the “Effect on content of non-phosphorylated β-catenin (active β-catenin), in words” value is listed as “decrease the content of non-phosphorylated β-catenin”.

The values above are taken from US20240085425A1, “BIOMARKER AND APPLICATION THEREOF” (ADLAI NORTYE BIOPHARMA CO., LTD., priority 2022, published 2024).
